# Peptide text beside a SMILES is read from it.
# Key:
# chondrocytes [1] = assay: Proliferation of chondrocytes by MTS assay; type: cell-based, New Zealand white rabbit; settings: 5 days of treatment, OD 570 nm, BM23 peptide 0.1, 0.3, 1 μM, IGF-1 1 μM
# Experimental: The articular cartilage of New Zealand white rabbit aged 2 months old was cut under sterile conditions, and cut into a size of 1 mm. The articular cartilage was digested at 37° C. according to the following procedure: (1) digested with 2 mg/ml hyaluronidase for 45 minutes; (2) digested with 2 mg/ml trypsin for 45 minutes; and (3) digested with 4 mg/ml type II collagenase for 3 hours, washed, and then centrifuged (1500 r/min) for 5 minutes; and the precipitate was cultured in a DMEM medium containing 15% fetal bovine serum. […] Detection of the Proliferation of Chondrocytes by MTS Assay Chondrocytes were inoculated in a 96-well plate at 2×10^4 cells/well, and different concentrations of BM23 peptides (0.1 μM, 0.3 μM, and 1 μM) were added; PBS was set as a negative control group, and IGF-1 (1 μM) was set as a positive control group. The 96-well plate was placed in a 5% CO2 saturated water-vapor carbon dioxide incubator for a culture at 37° C. for 5 days. 20 μl of MTS mixture was added to each well, and the culture was continued for 3-4 hours for coloration. Before testing, the culture plate was shaken for 10 seconds to uniformly mix colors. The optical density (OD) of each well was measured at a wavelength of 570 nm on an enzyme-linked immunometric meter.
# mesenchymal stem cells = assay: Immunohistochemical detection of COL2A1 in mesenchymal stem cells; type: cell-based, rat; settings: 1 μM
# Experimental: (§1) The cells were re-suspended in a complete chondrogenic medium (purchased from Guangzhou Cyagen Biosicences Inc., Item No.: RASMX-90011) containing different concentrations of BM23 peptides (0.1 μM, 0.3 μM, and 1 μM), so that the concentration of BMSCs was 5.0×10^5 cells per ml. PBS was used as a negative control, and 1 μM human insulin growth factor (IGF-1, purchased from Beijing Yiqiao Shenzhou Biotechnology Co., Ltd.) was used as a positive control.
# The treated BMSCs were incubated at 37° C. under 5% CO2 saturated humidity. The medium was changed every 2-3 days, and 0.5 mL of fresh complete chondrogenic medium was added to each tube.
# Generally, samples can be collected after 28 days of continuous induction; and cartilage balls can be subjected to formalin fixation, paraffin embedding, sectioning and alcian blue staining.
# Paraffin Embedding of Tissues:
# The specimens were fixed with 4% paraformaldehyde for 24-36 hours.
# The specimens were taken out and washed to remove the fixative, and a material with a suitable size (about 0.2 cm in thickness) was cut for embedding.
# The specimens were respectively treated once with 70%, 80%, 90% and 95% ethanol, and 60 minutes are for each treatment. The specimens were treated twice with 100% ethanol, and 50 minutes are for each time.
# The specimens were treated once with ½xylene-½ absolute ethanol for 15 minutes. […]
# [2] = system: rat bone marrow mesenchymal stem cells (BMSCs); assay: Chondrogenic induction of BMSCs, quantitative PCR of COL2A1 and ACAN mRNA; type: cell-based; settings: rat BMSCs in chondrogenic medium
# Experimental: Three SD rats aged 8 weeks were sacrificed by a dislocation method and disinfected with 70% ethanol for 5 minutes. The abdominal wall layers of the three SD rats were then cut with scissors, an incision of each SD rat was pulled to a femur, and muscles on the femur were carefully separated.
# A middle of the femur was cut off, and a bone marrow cavity was repeatedly washed by a low-sugar DMEM medium (containing 1 mL/L of heparin) sucked with a syringe to flush out bone marrow.
# The bone marrow was repeatedly washed with the syringe, and prepared into a single cell suspension by successively passing through needle No. 7 and needle No. 4.
# The single cell suspension was centrifuged (1500 r/min, 10 min), and a supernatant was discarded; DMEM-F12 complete medium containing 10% FBS was added, and then an inoculation was performed in a culture flask at a density of 10^7 cells/mL, and the culture flask was placed in an incubator having 5% CO2 at 37° C. for a culture.
# The cells were purified by a differential adherent culture. The culture solution was changed 48 hours after the inoculation, and thereafter, the culture solution was changed every 3 days to remove non-adherent hematopoietic cells.
# After the cells grew to 80%-90%, a passage was performed. The culture solution was removed, and the cells were washed with PBS to remove residual serum; and the PBS was removed.
# A BMSCs digestive juice (containing 0.25% trypsin and 0.02% EDTA solution) was added for a slight shaking until the BMSCs digestive juice just covers the bottom of the culture flask; and a digestion time was about 5 minutes. Then, the passage was carried out.
# The cells were transferred to a centrifuge tube, centrifuged at 1500 r/min for 10 minutes; a supernatant was removed; and a complete culture medium of mesenchymal stem cells was added for re-suspending the cells.
# The BM23 peptide was dissolved in phosphate buffered saline (PBS).
# as §1
# The treated BMSCs were incubated at 37° C. under 5% CO2 saturated humidity. The medium was changed every 2-3 days, and 0.5 mL of fresh complete chondrogenic medium was added to each tube. […]
# Quantitative PCR Detection […]
# Quantitative PCR was performed using cDNA as a template and the following primers: • (1) rat COL2A1-F1: 5′ […] […]
# chondrocytes [3] = assay: Immunohistochemical detection of COL2A1 in chondrocytes; type: cell-based, New Zealand white rabbit; settings: 1 μM, 5 days
# Experimental: The articular cartilage of New Zealand white rabbit aged 2 months old was cut under sterile conditions, and cut into a size of 1 mm. The articular cartilage was digested at 37° C. according to the following procedure: (1) digested with 2 mg/ml hyaluronidase for 45 minutes; (2) digested with 2 mg/ml trypsin for 45 minutes; and (3) digested with 4 mg/ml type II collagenase for 3 hours, washed, and then centrifuged (1500 r/min) for 5 minutes; and the precipitate was cultured in a DMEM medium containing 15% fetal bovine serum. Immunohistochemical Detection of COL2A1 Chondrocytes were inoculated at 3.5×10^5 cells/ml in a 6-well culture plate with coverslips, and different concentrations of BM23 peptides were added; PBS was set as a negative control group, and IGF-1 was set as a positive control group. The 6-well culture plate was placed in a 5% CO2 saturated water-vapor carbon dioxide incubator for a culture at 37° C. for 5 days. Immunohistochemical staining was performed as in Embodiment 3.
# in vivo = assay: in vivo; design: species or system New Zealand rabbits; settings: New Zealand, rabbit, iv, 0.5 mg/kg
# Experimental: LC/MSMS methodology was established, Finnigan TSQ Discovery Max LC/MS was equipped with Surveyor HPLC system. The detection limit was 1-1000 ng/ml, and the recovery rate was over 80%. Six New Zealand rabbits were randomly divided into two groups (three rabbits in each group). […] The blood concentration was measured by LC/MSMS method, 100 μl of blood plasma was taken, 500 μl of a mixed solvent containing IS 2000 ng/ml of acetonitrile and methanol solution at a ratio of 70:30 was added, shaken, and centrifuged at 12000 rpm for 10 minutes. 20 μl of supernatant was injected for LC/MSMS analysis. The main pharmacokinetic parameters were calculated by using 3P97 pharmacokinetic software.
# [4] = system: knee articular cartilage defect; assay: Rabbit cartilage repair model; type: in vivo, New Zealand rabbits; settings: for general observation score: 90 days after first administration, 0-4 point scale; for histopathological scores of articular cartilage: 90 days, ICRS pathological scoring, grade 0-6, six rabbits
# Experimental: Animals: New Zealand rabbits, 2 months old, half male and half female
# Construction of models: New Zealand rabbits were anesthetized with 6% pentobarbital sodium (0.7 mL/kg) via marginal ear veins. After anesthesia, a longitudinal incision having a length of about 3 cm was made on the medial side of the knee joint of the left hind leg; the skin, subcutaneous tissue and joint capsule were cut successively to maintain the integrity of the patellar ligament; and the patella was turned outward to expose the femoral condyle. When the knee joint flexes 90°, an articular cartilage defect with a diameter of 4.2 mm and a depth of 3 mm was drilled in the femur and the middle of lateral intercondylar articular surfaces corresponding to the patella by using a drill bit with a diameter of 4.2 mm (according to visible bleeding on subchondral bone). The defect was washed with normal saline without any other treatment. […] After the patella is reset, the muscle and skin incisions are sequentially sutured. After the operation, immediately, the animals were intramuscularly injected with penicillin sodium once a day for 3 consecutive days to prevent infection.
# Administration: the New Zealand rabbits with knee articular cartilage defects were divided into four groups: negative control group, low-dose group (1 mg/rabbit), medium-dose group (3 mg/rabbit) and high-dose group (10 mg/rabbit), 12 rabbits in each group, half male and half female in each group. On the 6th day after constructing the models, each group of rabbits was administered intra-articularly. Namely, 1 mg/rabbit, 3 mg/rabbit and 10 mg/rabbit were administered to the test rabbits, respectively, and the administration volume was 0.2 ml.
# Sacrifice and observation: at 90 days after the first administration, 6 rabbits (half male and half female) were selected from each group and sacrificed, and the repair situation of the knee articular cartilage in each rabbit was observed by dissection.
# (1) General observation: during necropsy, the articular cavity was opened, the patella articular surface was exposed, and the repair of the filling edge of the defect, the flatness of the cartilage surface, the color of the new cartilage, etc., were observed.
# Subsequently, scoring was performed according to the following criteria:
# 0 point: the articular surface is smooth and the color is normal;
# 1 point: the articular surface is rough, with small fissures and dark color;
# 2 points: the cartilage defect has reached the middle layer of cartilage;
# 3 points: the articular surface ulcer is formed, and the cartilage defect has reached the deep layer of cartilage; and
# 4 points: the cartilage is exfoliated, and subchondral bones are exposed.
# (2) Histological pathological observation: observation was performed under light microscope, and scoring was performed according to the ICRS pathological scoring standard:
# Grade 0: the cartilage surface is flat and the cartilage is intact;
# Grade 1: the superficial fibers are formed in the cartilage surface and are uneven;
# Grade 2: the cartilage surface is discontinuous, accompanied by cell proliferation; and metachromatic materials are increased or decreased in the II-III layers;
# Grade 3: cartilage rhagadia has reached the III layer or erosion occurs;
# Grade 4: the erosion of the cartilage is aggravated, and the articular cartilage is damaged;
# Grade 5: the articular cartilage is exfoliated; and
# Grade 6: the joint is deformed.
# After the rabbits were sacrificed by anesthesia and exsanguination, the articular cartilage tissue was exfoliated and fixed with 10% neutral formalin, followed by dehydration, conventional paraffin embedding, sectioning, HE staining and mounting, and detection was performed by light microscopy.
# [5] = high-dose group 10 mg/rabbit intra-articular
# [6] = low-dose group 1 mg/rabbit intra-articular
# [7] = medium-dose group 3 mg/rabbit intra-articular
half-life (in vivo) [h],Compound,proliferation of chondrocytes compared with the PBS group (chondrocytes [1]),expression level of COL2A1 protein (immunohistochemical staining) vs PBS treatment group (mesenchymal stem cells),mRNA expression level of ACAN compared with PBS treatment ([2]; 0.1 μM),mRNA expression level of COL2A1 compared with PBS treatment ([2]; 0.1 μM),mRNA expression level of ACAN compared with PBS treatment ([2]; 0.3 μM),mRNA expression level of ACAN compared with PBS treatment ([2]; 1 μM),expression level of COL2A1 protein (immunohistochemical staining) vs PBS treatment group (chondrocytes [3]),"general observation score [4, 5] [points]","histopathological scores of articular cartilage [4, 5] [points]","general observation score [4, 6] [points]","histopathological scores of articular cartilage [4, 6] [points]","general observation score [4, 7] [points]","histopathological scores of articular cartilage [4, 7] [points]"
2.05 ± 0.633,CC[C@H](C)[C@H](NC(=O)[C@H](CCCNC(=N)N)NC(=O)[C@H](Cc1c[nH]cn1)NC(=O)[C@H](CCCCNC(=N)N)NC(=O)[C@H](CC(N)=O)NC(=O)[C@H](CCCNC(=N)N)NC(=O)[C@H](Cc1c[nH]cn1)NC(=O)[C@H](CCCCN)NC(=O)[C@H](CC(C)C)NC(=O)[C@H](N)CCC(N)=O)C(=O)N[C@@H](CCCCN)C(=O)N[C@H](C(=O)NCC(=O)N[C@@H](CO)C(=O)N[C@H](C(=O)N[C@@H](CC(N)=O)C(=O)N[C@@H](Cc1c[nH]cn1)C(=O)NCC(=O)N[C@@H](CC(C)C)C(=O)N[C@H](C(=O)N[C@@H](CCC(N)=O)C(=O)N[C@@H](CO)C(=O)N[C@@H](CC(C)C)C(N)=O)C(C)C)[C@@H](C)O)[C@@H](C)O [BM23 peptide] (HELM PEPTIDE1{[dQ].L.K.H.R.N.[N=C(N)NCCCC[C@H](N[*:1])C(=O)[*:2]].H.R.I.K.T.G.S.T.N.H.G.L.V.Q.S.L.[am]}$$$$V2.0; N-terminus assumed),significantly promoted,significantly increased,no significant effect,no significant effect,significantly different,significantly different,significantly increased,2.1,2.1,3.7,3.7,3.0,3.0
,"positive control: human insulin growth factor (IGF-1), used at 1 μM as positive control",significantly promoted,,,,,,,,,,,,
